Where “and” joins values, the source holds several entries; their conditions need not be identical. Identical values can stand only once.
Key:
[1] = tested on: CEA-positive (LS174T) tumor; assay: Three-step PRIT (bsAb, dextran-DOTA-Y clearing agent, radiolabeled DOTA) biodistribution in xenograft mice; assay type: in vivo; details: for tumor uptake/activity, antigen-positive LS174T tumor: PRIT protocol with bsAb and dextran-DOTA-Y
Procedure: (§1) Radiolabeling. DOTA compounds were dissolved at 0.5 mM in ammonium acetate pH 5.6. 1-2 mCi ^177LuCl3 (PerkinElmer, Waltham, Mass.) or ^111InCl3 (Cardinal Health, Dublin, Ohio) were added to the metal chelate and incubated for 1-2 h at 85-95 C. The radiolabeled compounds were purified by RP-HPLC (Humblet et al., Contrast Media Mol. Imaging. 1:196-211, 2006; Misra et al., J. Nucl. Med. 48:1379-1389, 2007) with gamma detection on a 4.6×75 mm Symmetry C18 column using a linear gradient from 0% to 40% B over 15 minutes, at a flow rate of 1 mL/min, where A=10 mM TEAA and B=methanol. The purified compounds were dried under vacuum, resuspended in saline, and filter-sterilized.
(§2) Animal models. All animal handling was performed in accordance with BIDMC IACUC guidelines. Male NCRU-nu/nu mice were purchased from Taconic Farms (Germantown, N.Y.). For biodistribution and tumor uptake, 100-150 μCi ^177Lu- or ^111In-labeled hapten was injected intravenously into the mice. Blood was collected from the tail vein using micro-capillary tubes and counted on a model 1470 Wallac Wizard™ (Perkin Elmer, Wellesley, Mass.) 10-detector gamma counter. Mice were euthanized by intraperitoneal injection of pentobarbital followed by cervical dislocation, a method consistent with the recommendations of the Panel on Euthanasia of the American Veterinary Medical Association. Organs and tumors were resected, washed in PCS three times, weighed, and counted as described above.
We next tested a protocol involving all three reagents to determine the efficacy of our engineered PRIT system. […] After an additional 1 h, 100-150 μCi ^177Lu-DOTA was injected intravenously. At 4 h post-injection of radiolabeled DOTA, tumor uptake was 7.44+/−0.41% ID/g in the antigen-positive tumor, 84-fold higher than the tumor uptake observed for ^177Lu-DOTA alone. Activity was also higher in non-tumor tissue due to binding of ^177Lu-DOTA to residual bsAb in the extravascular compartment. Tumor uptake in the antigen-negative tumor was 9.82+/−0.35% ID/g at 4 h, similar to the antigen-positive tumor due to nonspecific uptake from enhanced permeability and retention (EPR) of the bsAb. […] The LS174T tumor to blood ratio increased from 18+/−2 at 4 h to 380+/−90 at 24 h and was greater than 450 at 48 h. […] The LS174T tumor to kidney ratio increased from approximately 8 at 4 h to about 20 at 24 and 48 h. SPECT/CT images confirmed the quantitative biodistribution data with high PSECT signal in the CEA-positive tumors, lower signal in the CEA-negative tumor and no observable signal in non-tumor tissue.
The pretargeted protocol described above was used to analyze the effect of affinity on the tumor uptake of radiolabeled DOTA. […] The 24 h organ/tissue biodistribution was determined in tumor-bearing mice with each of the four radiolabeled DOTA compounds. […] The activity in the C6 antigen-negative tumor increased with affinity, presumably due to nonspecific uptake of bsAb. The activity in the non-tumor tissues is also higher for the higher affinity compounds due to the higher affinity binding to residual bsAb.

CEA-negative (C6) tumor = assay: as above; assay type: in vivo; details: PRIT protocol
Procedure: as §1, §2
We next tested a protocol involving all three reagents to determine the efficacy of our engineered PRIT system. […] After an additional 1 h, 100-150 μCi ^177Lu-DOTA was injected intravenously. At 4 h post-injection of radiolabeled DOTA, tumor uptake was 7.44+/−0.41% ID/g in the antigen-positive tumor, 84-fold higher than the tumor uptake observed for ^177Lu-DOTA alone. […] SPECT/CT images confirmed the quantitative biodistribution data with high PSECT signal in the CEA-positive tumors, lower signal in the CEA-negative tumor and no observable signal in non-tumor tissue.

[2] = Organ uptake of DOTA-based compounds in normal CD1 mice; assay type: in vivo; details: 4 h p.i., compared to radiolabeled DOTA-biotin and DOTA-Bn
[3] = MIRD dosimetry estimate from PRIT mouse biodistribution; assay type: in vivo; details: 70 kg man
Procedure: Dosimetry. Radiation doses absorbed by normal tissues other than the red marrow were calculated according to the MIRD scheme. Percent injected activity in tumor, kidneys, liver, blood, and whole-body were calculated from activity measurements. The activity at time 0 was assumed to be 4% ID/g in the kidney and liver, 50% ID/g in the blood, 0% ID/g in the tumor and 100% in the whole-body. Isotope decay-adjusted activity was integrated over time, with a conservative assumption that the 48 h organ % ID remained constant thereafter. S values for ^90Y and ^177Lu were used to calculate dosimetry estimates in an adult male reference (Stabin and Siegel, Health Phys. 85:294-310, 2003). The red marrow dose was calculated as described (Wessels et al., J. Nucl. Med. 45:1725-1733, 2004) from blood activity measurements. […] Tumor doses were calculated from self-dose only using S-factors for a unit density sphere of size 500 g (the average LS174T tumor size scaled by 2000).
From the PRIT organ biodistribution data, the radiation dose to the kidney, liver, red marrow, and antigen-positive tumor was estimated for a 70 kg person for ^90Y and ^177Lu. […] The estimated doses to the kidney, liver, and red marrow were calculated from both the self-dose and cross-dose, wherein the whole-body activity was used to determine the cross-dose. The estimated dose to the tumor was determined from self-dose only. […]

DOTA-Bn-biotin-Y [4] = assay: KD by titration of yeast surface-displayed scFv, flow cytometry; assay type: binding; details: hapten DOTA-Bn-Biotin, metal Y, 37° C., mean ± SD
Procedure: Briefly, yeast expressing an scFv clone on their surface were grown, washed with PBSA and incubated with various concentrations of DOTA-Bn-biotin-metal long enough to allow for at least a 95% approach to equilibrium. Generally, 5×10^5 induced cells were used for each concentration point. When antigen concentrations less than 10 pM were assayed, the titration was performed with 2.5×10^4 induced and 7.5×10^5 non-induced cells to ensure antigen excess over the scFv without requiring impractically large volumes. The addition of non-induced cells aids pelleting during centrifugation (Hackel et al., J. Mol. Biol. 381:1238-1252, 2008). When antigen concentrations greater than 100 nM were used, non-specific antigen binding to the yeast surface was taken into account. Yeast expressing an irrelevant scFv on their surface were treated in the same manner as the yeast displaying the scFv of interest, and mean total phycoeryhthrein fluorescence (MFUtot) due to non-specific binding was measured by flow cytometry and averaged over three replicates. This value was subtracted from the MFUtot for the yeast of interest, and the data was fit by least-squares regression.

DOTA-Bn-biotin-Y [5] = assay: Dissociation kinetics, yeast surface-displayed scFv; assay type: binding
Procedure: Dissociation Kinetics. To determine the dissociation rate, koff, for DOTA-Bn-biotin complexes, cells were induced and washed as above, and 1×10^7 cells were incubated in 1 mL PBSA with 1 nM DOTA-Bn-biotin-metal for 1 h to reach saturation. Subsequently, the yeast were washed with 1 mL PBSA, resuspended in 1 mL PBSA with 1 μM (excess) non-biotinylated antigen as competitor and split into 100 μL aliquots. These aliquots were incubated at 37° C. for different lengths of time, then washed with cold PBSA and left on ice. All samples were simultaneously stained with streptavidin-phycoerythrein for 10-20 min and analyzed by flow cytometry. The data was fit to the following equation by least squares regression, varying MFUmin, MFUrange and koff: MFUtot=MFUmin+MFUrangee^−k^off^t For nonbiotinylated antigens, the procedure was identical except that initial saturation was with the nonbiotinylated antigen and DOTA-Bn-biotin-metal was used as competitor. The data followed the expression MFUtot=MFUmin+MFUrange(1−e^−k^off^t)

DOTA-Bn-Gd = assay: KD by competition with DOTA-Bn-biotin-Y, yeast surface-displayed scFv; assay type: binding; details: hapten DOTA-Bn, metal Gd; mean ± SD
Procedure: (§3) KD Measurements for DOTA-metal and DOTA-Bn-metal. To determine the KD for scFv binding to nonbiotinylated haptens, the above protocol was modified to a competition-based assay as follows. […] Incubation, staining, and flow cytometry analysis was the same as that for biotinylated antigen. MFUtot as a function of the concentration of the nonbiotinylated antigen ([Ag]), a normalization constant (MFUrange), the minimal total mean fluorescence (MFUmin), the KD for DOTA-Bn-biotin-Y (KD, biot), DOTA-Bn-biotin-Y concentration ([Agbiot]), and the KD for the antigen of interest (KD) follows this modified equation:
(§4) [formula] The data was fit by least squares regression as before, varying MFUmin, MFUrange and KD.

DOTA-In = assay: as above; assay type: binding; details: hapten DOTA, metal In; mean ± SD
Procedure: as §3, §4

DOTA-Bn-In = assay: as above; assay type: binding; details: hapten DOTA-Bn, metal In; mean ± SD
Procedure: as §3, §4

DOTA-Lu = assay: as above; assay type: binding; details: hapten DOTA, metal Lu; mean ± SD
Procedure: as §3, §4

DOTA-Bn-Lu = assay: as above; assay type: binding; details: hapten DOTA-Bn, metal Lu; mean ± SD
Procedure: as §3, §4

DOTA-Bn-Ga = assay: as above; assay type: binding; details: hapten DOTA-Bn, metal Ga; mean ± SD
Procedure: as §3, §4

DOTA-Y = assay: as above; assay type: binding; details: hapten DOTA, metal Y; mean ± SD
Procedure: as §3, §4

DOTA-Ga = assay: as above; assay type: binding; details: hapten DOTA, metal Ga; mean ± SD
Procedure: as §3, §4

DOTA-Bn-Y = assay: as above; assay type: binding; details: hapten DOTA-Bn, metal Y; mean ± SD
Procedure: as §3, §4

DOTA-Gd = assay: as above; assay type: binding; details: hapten DOTA, metal Gd; mean ± SD
Procedure: as §3, §4

O=C([O-])CN1CCN(CC(=O)[O-])CCN(CC(=O)[O-])CCN(CC(=O)[O-])CC1.[111In+3] [^111In-DOTA]
LS174T tumor to kidney ratio ([1]; 24 h, PRIT protocol): 1.2+/−0.4 | tumor uptake/activity, antigen-positive LS174T tumor ([1]; 24 h): 0.5+/−0.1 % ID/g

O=C([O-])CN1CCN(CC(=O)[O-])CCN(CC(=O)[O-])CCN(CC(=O)[O-])CC1.[177Lu+3].[H+] [^177Lu-DOTA]
tumor uptake, antigen-negative tumor (CEA-negative (C6) tumor; 4 h): 9.82+/−0.35 % ID/g | tumor activity, antigen-negative tumor (CEA-negative (C6) tumor; 24 h): 4.23+/−0.54 % ID/g | tumor activity, antigen-negative tumor (CEA-negative (C6) tumor; 48 h): 2.89+/−2.28 % ID/g | LS174T tumor to blood ratio ([1]; 4 h, PRIT protocol): 18+/−2 | LS174T tumor to kidney ratio ([1]; 4 h, PRIT protocol): approximately 8 | tumor uptake relative to hapten alone ([1]; 4 h, antigen-positive tumor, versus ^177Lu-DOTA alone): 84 fold | tumor uptake, antigen-positive tumor ([1]; 4 h post-injection of radiolabeled DOTA, 500 μg bsAb, 250 μg dextran-DOTA-Y 24 h later, hapten 1 h later): 7.44+/−0.41 % ID/g | tumor uptake/activity, antigen-positive LS174T tumor ([1]; 24 h): ~14 % ID/g and 14.3+/−1.8 % ID/g | tumor uptake relative to hapten of ~1 nM affinity ([1]; 24 hours, affinity ~100 pM versus ~1 nM): 8 fold | tumor uptake relative to hapten of ~10 nM affinity ([1]; 24 hours, affinity ~100 pM versus ~10 nM): 28 fold | blood activity ([1]; 48 h, PRIT protocol): not measurable above background | liver and intestine uptake [2]: slightly lower | estimated dose to the tumor ([3]; at a red marrow dose of 1.5 Gy, estimated from mouse biodistribution, self-dose only): 156 Gy | dose-limiting organ ([3]; predicted from radiation dose estimates): red marrow

B1: C8.2.5: high-affinity disulfide-stabilized DOTA-binding scFv affinity matured from 2D12.5; residues 1-244 are SEQ ID NO:12 (protein)
scFv: HVKLQESGPGLVQPSQSLSLTCTVSGFSLTDYGVHWVRQSPGKGLEWLGVIWSGGGTAYNTALISRLNIYRDNSKNQVFLEMNSLQAEDTAMYYCARRGSYPYNYFDAWGCGTTVTVSSGGGGSGGGGSGGGGSQAVVIQESALTTPPGETVTLTCGSSTGAVTASNYANWVQEKPDHCFTGLIGGHNNRPPGVPARFSGSLIGDKAALTIAGTQTEDEAIYFCALWYSDHWVIGGGTRLTVLGGSEQKLISEEDL
Kd (DOTA-Bn-biotin-Y [4]): 0.0082 ± 0.0019 nM | dissociation half-time (DOTA-Bn-biotin-Y [5]): over 5 hours | Kd (DOTA-Bn-Gd): 0.034 ± 0.0053 nM | Kd (DOTA-In): 23.7 ± 3.7 nM | Kd (DOTA-Bn-In): 1.01 ± 0.04 nM | Kd (DOTA-Lu): 0.39 ± 0.014 nM | Kd (DOTA-Bn-Lu): 0.0108 ± 0.0025 nM | Kd (DOTA-Bn-Ga): 52 ± 12 nM | Kd (DOTA-Y): 0.103 ± 0.035 nM | Kd (DOTA-Ga): 216 ± 26 nM | Kd (DOTA-Bn-Y): 0.0154 ± 0.002 nM | Kd (DOTA-Gd): 0.149 ± 0.006 nM

B2: 2D12.5ds: original 2D12.5 scFv with the addition of the intramolecular disulfide bond and removed glycosylation site (SEQ ID NO:2) (protein)
scFv: QVKLQESGPGLVQPSQSLSITCTVSGFSLTDYGVHWVRQSPGKGLEWLGVIWSGGGTAYTAAFISRLNIYKDNSKNQVFFEMNSLQAEDTAMYYCARRGSYPYNYFDVWGCGTTVTVSSGGGGSGGGGSGGGGSQAVVTQESALTTSPGETVTLTCRSSTGAVTTSNYANWVQEKPDHCFTGLIGGNNNRPPGVPARFSGSLIGDKAALTIAGTQTEDEAIYFCALWYSNHWVFGGGTRLTVLG
Kd (DOTA-Bn-biotin-Y [4]): 3.7 ± 3.6 nM | dissociation half-time (DOTA-Bn-biotin-Y [5]): 5.5 min

Source: patent US8648176B2, “Engineered proteins with high affinity for DOTA chelates” (Massachusetts Institute of Technology, priority 2009, dated 2014)
